Here are results for 15 molecules from US20250214991A1 (Oncopia Therapeutics, Inc. d/b/a/ SK Life Science Labs, priority 2022, published 2025).

Test [1] has as its target IKZF1 (Homo sapiens (Human), UniProt Q13422+Q96SW2). As to the kind of experiment: In vitro IKZF1 HiBit Assay (HEK293T Flp-in-HiBiT-IKZF1 stable cell line). The test is classed as cell-based. The settings on record: HEK293T Flp-in-HiBiT-IKZF1 stable cell line, 6 hrs incubation; for DC50: read-out: IKZF1 HiBit DC50; for Dmax: HEK-293T, read-out: IKZF1 HiBit Dmax (%). As to the method: In Vitro IKZF1 HiBit Assay
The HiBiT protein tagging system was applied to modified Cells: modified HEK293T Flp-in-HiBiT-IKZF1 stable cell line (polyclone) via a CRISPR/Cas9-mediated insertion of the HiBiT peptide tag (Promega™) to the N-terminus of the […] gene locus (Neon™ transfection system).
25 nL of diluted compound is transferred to assay plates (Corning3571) using ECHO550, the final DMSO concentration @ 0.1%. The cells are seeded in 3000/25 μL/well to compound plates. The plates are incubated for 6 hrs in TC incubator. The amount of Nano-Glo® HiBiT lytic reagent needed to perform the desired experiments is calculated. The Nano-Glo® HiBiT lytic reagent is brought to room temperature. The LgBiT protein is diluted to 1:100 and the Nano-Glo® HiBiT lytic substrate is brought to 1:50 into an appropriate volume of room temperature Nano-Glo® HiBiT lytic buffer. 15 μL of the detection reagent (or without LgBiT) is dispensed to corresponding well according to the layout. The plate is shaked for 10 mins at room temperature. After briefly centrifuge, the plateis read on Envision. At the indicated timepoints, the Nano-Glo® HiBiT lytic detection system (Promega™) was utilized for detecting bioluminescence of the HiBiT tag in treated cells: abundance of the tag is proportionate to the level of luminescence. Following normalization to DMSO, dose-response curves were plotted (GraphPad Prism) to determine the concentration points at which 50% of HiBiT-Ikaros degradation was achieved by each compound. The extent of degradation (range of luminescence) from the highest to lowest concentration points was calculated to determine the Dmax.
(§1) DC50, A: <1 nM; B: 1-10 nM; C: 10-100 nM; D: 100-1000 nM; E: 1000-10000 nM; F: >10,000 nM. Dmax, A: >80%; B: 60-80%; C: 40-60%; D: 20-40%; E: <20%.
In general terms: With HiBiT, luminescence reflects the tagged protein that the partner subunit can reach.

In test [2] the target is IKZF2 (Homo sapiens (Human), UniProt Q96SW2+Q9UKS7). The test can be described thus: In vitro IKZF2 HiBit Assay (HEK293T Flp-in-HiBiT cells). Format: cell-based. The settings on record: HEK293T Flp-in-HiBiT cells, 6 hrs incubation; for DC50: read-out: IKZF2 HiBit DC50; for Dmax: HEK-293T, read-out: IKZF2 HiBit Dmax (%). As to the method: In Vitro IKZF2 HiBit Assay
Sequence of IKZF2 (Q9UKS7 whole entry): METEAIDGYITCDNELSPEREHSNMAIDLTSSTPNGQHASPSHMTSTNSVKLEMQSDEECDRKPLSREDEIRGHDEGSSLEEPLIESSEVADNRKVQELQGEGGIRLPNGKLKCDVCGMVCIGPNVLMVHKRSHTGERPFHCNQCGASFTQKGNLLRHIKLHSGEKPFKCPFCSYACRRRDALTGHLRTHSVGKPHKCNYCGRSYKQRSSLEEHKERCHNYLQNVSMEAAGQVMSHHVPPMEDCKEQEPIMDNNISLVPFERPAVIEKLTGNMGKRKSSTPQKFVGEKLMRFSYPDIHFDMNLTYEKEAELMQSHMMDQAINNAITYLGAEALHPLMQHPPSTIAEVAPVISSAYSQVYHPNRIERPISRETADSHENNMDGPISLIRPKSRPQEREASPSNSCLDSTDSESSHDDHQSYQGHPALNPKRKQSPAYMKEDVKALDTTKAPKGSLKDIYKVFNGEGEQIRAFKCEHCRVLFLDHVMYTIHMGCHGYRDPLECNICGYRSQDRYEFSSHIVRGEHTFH
Sequence of IKZF2 (Q96SW2 whole entry): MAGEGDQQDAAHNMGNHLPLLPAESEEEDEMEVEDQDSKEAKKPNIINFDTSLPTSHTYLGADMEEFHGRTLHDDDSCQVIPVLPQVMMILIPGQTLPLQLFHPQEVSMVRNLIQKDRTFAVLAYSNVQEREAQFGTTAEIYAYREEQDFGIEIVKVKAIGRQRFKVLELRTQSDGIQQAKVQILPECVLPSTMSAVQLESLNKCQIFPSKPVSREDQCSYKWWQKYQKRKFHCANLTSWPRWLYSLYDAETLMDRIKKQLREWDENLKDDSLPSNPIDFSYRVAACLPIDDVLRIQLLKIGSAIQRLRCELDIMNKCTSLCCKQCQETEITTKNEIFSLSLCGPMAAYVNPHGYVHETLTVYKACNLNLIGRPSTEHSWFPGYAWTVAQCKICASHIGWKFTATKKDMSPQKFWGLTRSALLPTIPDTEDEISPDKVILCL
Sequence of IKZF2 (Q16531 2-1140 partner): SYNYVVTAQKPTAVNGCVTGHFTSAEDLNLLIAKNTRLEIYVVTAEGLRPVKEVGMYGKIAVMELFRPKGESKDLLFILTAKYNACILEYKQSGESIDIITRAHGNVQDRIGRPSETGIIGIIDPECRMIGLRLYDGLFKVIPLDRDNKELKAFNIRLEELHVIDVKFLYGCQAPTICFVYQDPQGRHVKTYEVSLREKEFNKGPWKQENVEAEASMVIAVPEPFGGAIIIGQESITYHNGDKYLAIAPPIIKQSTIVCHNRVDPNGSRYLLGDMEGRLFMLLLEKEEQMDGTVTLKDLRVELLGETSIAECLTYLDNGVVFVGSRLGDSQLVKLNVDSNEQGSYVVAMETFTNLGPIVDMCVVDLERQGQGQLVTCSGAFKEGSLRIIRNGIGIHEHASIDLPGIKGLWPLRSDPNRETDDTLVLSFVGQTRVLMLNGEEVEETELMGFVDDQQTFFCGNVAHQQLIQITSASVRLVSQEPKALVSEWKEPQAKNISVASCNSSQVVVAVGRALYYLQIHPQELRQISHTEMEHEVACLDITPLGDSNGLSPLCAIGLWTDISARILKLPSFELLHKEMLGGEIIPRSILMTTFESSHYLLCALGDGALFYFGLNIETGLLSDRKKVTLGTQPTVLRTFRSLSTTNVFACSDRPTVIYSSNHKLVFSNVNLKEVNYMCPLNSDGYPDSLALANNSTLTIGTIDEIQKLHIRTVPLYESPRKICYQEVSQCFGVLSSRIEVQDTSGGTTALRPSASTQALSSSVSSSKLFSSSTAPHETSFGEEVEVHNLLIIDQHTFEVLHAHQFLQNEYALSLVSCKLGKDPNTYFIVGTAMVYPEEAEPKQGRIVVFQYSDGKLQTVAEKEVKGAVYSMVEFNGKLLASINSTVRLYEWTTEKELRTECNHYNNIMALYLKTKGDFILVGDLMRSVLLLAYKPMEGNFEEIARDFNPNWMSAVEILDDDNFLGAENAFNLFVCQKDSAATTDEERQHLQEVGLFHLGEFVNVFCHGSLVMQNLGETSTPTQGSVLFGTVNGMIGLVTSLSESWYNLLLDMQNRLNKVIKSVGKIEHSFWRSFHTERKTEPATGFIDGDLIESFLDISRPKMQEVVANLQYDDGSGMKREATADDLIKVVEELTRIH
The HiBiT protein tagging system was applied to modified HEK293T Flp-in-HiBiT cells (polyclone) via a CRISPR/Cas9-mediated insertion of the HiBiT peptide tag (Promega™) to the N-terminus of the IKZF2 gene locus (Neon™ transfection system). Test and reference compounds are diluted from 1 mM at 3 folds for 11 doses. 25 nL of diluted compound is transfered to assay plates (Corning3570) using ECHO550, the final DMSO concentration @ 0.1%. The cells are seeded in 3000/25 μL/well to compound plates. It is then incubated for 6 hrs in TC incubator. The amount of Nano-Glo® HiBiT lytic reagent needed to perform the desired experiments is calculated. The Nano-Glo® HiBiT lytic reagent is brought to room temperature. The LgBiT protein is diluted to 1:100 and the Nano-Glo® HiBiT lytic substrate is diluted to 1:50 into an appropriate volume of room temperature Nano-Glo® HiBiT lytic buffer. 15 μL of the detection reagent (or without LgBiT) is dispensed to corresponding well according to the layout. The plate is then shaked for 10 mins at room temperature. After briefly centrifuge, the plate is read on Envision. At the indicated timepoints, the Nano-Glo® HiBiT lytic detection system (Promega™) was utilized for detecting bioluminescence of the HiBiT tag in treated cells: abundance of the tag is proportionate to the level of luminescence. Following normalization to DMSO, dose-response curves were plotted (GraphPad Prism) to determine the concentration points at which 50% of HiBiT-Helios degradation was achieved by each compound. The extent of degradation (range of luminescence) from the highest to lowest concentration points was calculated to determine the Dmax.
as §1

Structures are written as SMILES. Bounds are passed on as bounds.

Sequence of IKZF1 (Q13422 whole entry): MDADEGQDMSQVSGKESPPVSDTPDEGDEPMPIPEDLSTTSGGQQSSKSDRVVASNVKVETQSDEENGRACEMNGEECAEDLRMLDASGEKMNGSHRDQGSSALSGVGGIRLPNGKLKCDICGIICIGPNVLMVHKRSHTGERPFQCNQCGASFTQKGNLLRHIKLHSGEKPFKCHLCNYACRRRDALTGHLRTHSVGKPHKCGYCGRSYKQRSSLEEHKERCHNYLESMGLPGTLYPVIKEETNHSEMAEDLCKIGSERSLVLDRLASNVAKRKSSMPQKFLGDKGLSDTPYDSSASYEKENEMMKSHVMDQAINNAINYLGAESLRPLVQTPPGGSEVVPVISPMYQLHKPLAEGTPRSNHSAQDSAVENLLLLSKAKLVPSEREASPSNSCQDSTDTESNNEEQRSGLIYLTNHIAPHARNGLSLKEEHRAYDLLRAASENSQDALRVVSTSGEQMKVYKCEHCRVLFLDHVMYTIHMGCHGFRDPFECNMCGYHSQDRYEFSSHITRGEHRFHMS
Sequence of IKZF1 (Q96SW2 whole entry): as the sequence (Q96SW2 whole entry) above
Sequence of IKZF1 (Q16531 2-1140 partner): as the sequence (Q16531 2-1140 partner) above

For the molecule `O=C1CCC(N2Cc3cc(-c4cc(CN5CCCC5)c5nccc(OC6COC6)c5n4)ccc3C2=O)C(=O)N1` (stereo not drawn) [Example 251, 3-(5-(8-(oxetan-3-yloxy)-4-(pyrrolidin-1-ylmethyl)-1,5-naphthyridin-2-yl)-1-oxoisoindolin-2-yl) piperidine-2,6-dione], in test [1], the DC50 was above 10000 nM and the Dmax was below 20%. Moreover, in test [2], the DC50 is 10 to 100 nM and the Dmax fell in the range of 60 to 80%.

In the case of `O=C1CCC(N2Cc3cc(-c4cc(CN5CCCC5C(F)F)c5ccn(C6COC6)c5n4)ccc3C2=O)C(=O)N1` (stereo not drawn) [Example 252, 3-(5-(4-((2-(difluoromethyl)pyrrolidin-1-yl)methyl)-1-(oxetan-3-yl)-1H-pyrrolo[2,3-b]pyridin-6-yl)-1-oxoisoindolin-2-yl) piperidine-2,6-dione], the DC50 in test [1] is above 10000 nM; in test [2], 10 to 100 nM. In addition, the Dmax in test [1] was below 20%; in test [2] it was 40 to 60%.

As to `O=C1CCC(N2Cc3cc(-c4cc(CN5CCCC5C(F)(F)F)c5ccn(C6COC6)c5n4)ccc3C2=O)C(=O)N1` (stereo not drawn) [Example 253, 3-(5-(1-(oxetan-3-yl)-4-((2-(trifluoromethyl)pyrrolidin-1-yl)methyl)-1H-pyrrolo[2,3-b]pyridin-6-yl)-1-oxoisoindolin-2-yl) piperidine-2,6-dione], in test [1], the DC50 is above 10000 nM and the Dmax is below 20%. For the same molecule, in test [2], the DC50 is 10 to 100 nM and the Dmax lay within 40 to 60%.

As for `CC(=O)N1CC(n2ccc3c(CN4CCCC4)cc(-c4ccc5c(c4)CN(C4CCC(=O)NC4=O)C5=O)nc32)C1` (stereo not drawn) [Example 256, 3-(5-(1-(1-acetylazetidin-3-yl)-4-(pyrrolidin-1-ylmethyl)-1H-pyrrolo[2,3-b]pyridin-6-yl)-1-oxoisoindolin-2-yl) piperidine-2,6-dione], in test [1], the DC50 was above 10000 nM and the Dmax is below 20%. Also, in test [2], the DC50 was 10 to 100 nM and the Dmax was above 80%.

Consider `O=C1CCC(N2Cc3cc(-c4cc(CN5CCCC5CF)c5ccn(C6COC6)c5n4)ccc3C2=O)C(=O)N1` (stereo not drawn) [Example 257, 3-(5-(4-((2-(fluoromethyl)pyrrolidin-1-yl)methyl)-1-(oxetan-3-yl)-1H-pyrrolo[2,3-b]pyridin-6-yl)-1-oxoisoindolin-2-yl) piperidine-2,6-dione], for which, in test [1], the DC50 lay in the range of 1 to 10 nM and the Dmax was in the range of 20 to 40%. Moreover, in test [2], the DC50 is 1 to 10 nM and the Dmax was above 80%.

Regarding `Cc1nc2c(CN3CCCC3)cc(-c3ccc4c(c3)CN(C3CCC(=O)NC3=O)C4=O)nc2n1C1COC1` (stereo not drawn) [Example 258, 3-(5-(2-methyl-3-(oxetan-3-yl)-7-(pyrrolidin-1-ylmethyl)-3H-imidazo[4,5-b]pyridin-5-yl)-1-oxoisoindolin-2-yl) piperidine-2,6-dione], the DC50 in test [1] was above 10000 nM; in test [2] it was 10 to 100 nM. Further, the results for the Dmax in test [1] and in test [2] were below 20% and 60 to 80%, respectively.

Consider `Cc1cc(-c2ccc3c(c2)CN(C2CCC(=O)NC2=O)C3=O)nc2c1nc(CN1CCCC1)n2C1COC1` (stereo not drawn) [Example 259, 3-(5-(7-methyl-3-(oxetan-3-yl)-2-(pyrrolidin-1-ylmethyl)-3H-imidazo[4,5-b]pyridin-5-yl)-1-oxoisoindolin-2-yl) piperidine-2,6-dione], for which, in test [1], the DC50 was above 10000 nM and the Dmax was below 20%. Further, in test [2], the DC50 is above 10000 nM and the Dmax is below 20%.

For the molecule `CCc1c(-c2ccc3c(c2)CN(C2CCC(=O)NC2=O)C3=O)nc2c(ccn2C2COC2)c1CN1CCCC1` (stereo not drawn) [Example 262, 3-(5-(5-ethyl-1-(oxetan-3-yl)-4-(pyrrolidin-1-ylmethyl)-1H-pyrrolo[2,3-b]pyridin-6-yl)-1-oxoisoindolin-2-yl) piperidine-2,6-dione], in test [1], the DC50 was above 10000 nM and the Dmax was below 20%. In test [2], the DC50 fell in the range of 1 to 10 nM and the Dmax lay in the range of 60 to 80%.

For `Cn1cnc(-n2ccc3c(CN4CCCC4)cc(-c4ccc5c(c4)CN([C@H]4CCC(=O)NC4=O)C5=O)nc32)c1` [Example 263, (S)-3-(5-(1-(1-methyl-1H-imidazol-4-yl)-4-(pyrrolidin-1-ylmethyl)-1H-pyrrolo[2,3-b]pyridin-6-yl)-1-oxoisoindolin-2-yl) piperidine-2,6-dione], in test [1], the DC50 was above 10000 nM and the Dmax is below 20%. In addition, in test [2], the DC50 fell in the range of 1 to 10 nM and the Dmax is 40 to 60%.

Consider `O=C1CC[C@H](N2Cc3cc(-c4cc(CN5CCCC5)c5ccn(-c6ncco6)c5n4)ccc3C2=O)C(=O)N1` [Example 267, (S)-3-(5-(1-(oxazol-2-yl)-4-(pyrrolidin-1-ylmethyl)-1H-pyrrolo[2,3-b]pyridin-6-yl)-1-oxoisoindolin-2-yl) piperidine-2,6-dione], for which, in test [1], the DC50 is above 10000 nM and the Dmax is below 20%. In addition, in test [2], the DC50 is 1 to 10 nM and the Dmax was in the range of 60 to 80%.

Regarding `O=C1CC[C@H](N2Cc3cc(-c4cc(CN5CCCC5)c5ccn(-c6cn[nH]c6)c5n4)ccc3C2=O)C(=O)N1` [Example 271, (S)-3-(5-(1-(1H-pyrazol-4-yl)-4-(pyrrolidin-1-ylmethyl)-1H-pyrrolo[2,3-b]pyridin-6-yl)-1-oxoisoindolin-2-yl) piperidine-2,6-dione], in test [1], the DC50 lay within 100 to 1000 nM and the Dmax lay within 20 to 40%. Also, in test [2], the DC50 is 1 to 10 nM and the Dmax was above 80%.

As to `O=C1CCC(N2Cc3cc(-c4cc(CN5CCCC5)c5ccn(C6COC6)c5n4)c(Cl)cc3C2=O)C(=O)N1` (stereo not drawn) [Example 273, 3-(6-chloro-5-(1-(oxetan-3-yl)-4-(pyrrolidin-1-ylmethyl)-1H-pyrrolo[2,3-b]pyridin-6-yl)-1-oxoisoindolin-2-yl) piperidine-2,6-dione], in test [1], the DC50 is above 10000 nM and the Dmax was below 20%. Moreover, in test [2], the DC50 is above 10000 nM and the Dmax was below 20%.

On to `COCCOc1ccnc2c(CN3CCCC3)cc(-c3ccc4c(c3)CN(C3CCC(=O)NC3=O)C4=O)nc12` (stereo not drawn) [Example 278, 3-(5-(8-(2-methoxyethoxy)-4-(pyrrolidin-1-ylmethyl)-1,5-naphthyridin-2-yl)-1-oxoisoindolin-2-yl) piperidine-2,6-dione], for which the DC50 in test [1] and in test [2] was above 10000 nM throughout. For the same molecule, the Dmax in test [1] and in test [2] was below 20% each time.

Regarding `CC(Oc1ccnc2c(CN3CCCC3)cc(-c3ccc4c(c3)CN(C3CCC(=O)NC3=O)C4=O)nc12)C(F)(F)F` (stereo not drawn) [Example 279, 3-(1-oxo-5-(4-(pyrrolidin-1-ylmethyl)-8-((1,1,1-trifluoropropan-2-yl)oxy)-1,5-naphthyridin-2-yl)isoindolin-2-yl) piperidine-2,6-dione], in test [1], the DC50 was above 10000 nM and the Dmax was below 20%. Further, in test [2], the DC50 was in the range of 1 to 10 nM and the Dmax fell in the range of 60 to 80%.

On to `CO[C@H]1C[C@@H](Oc2ccnc3c(CN4CCCC4)cc(-c4ccc5c(c4)CN(C4CCC(=O)NC4=O)C5=O)nc23)C1` (stereo partly drawn) [Example 281, 3-(5-(8-((1s,3s)-3-methoxycyclobutoxy)-4-(pyrrolidin-1-ylmethyl)-1,5-naphthyridin-2-yl)-1-oxoisoindolin-2-yl) piperidine-2,6-dione], for which, in test [1], the DC50 was above 10000 nM and the Dmax is below 20%. For the same molecule, in test [2], the DC50 lay within 10 to 100 nM and the Dmax lay within 60 to 80%.
